The values that follow come from paper PMC9496258, “Trace Immunosensing of Multiple Neonicotinoid Insecticides by a Novel Broad-Specific Antibody Obtained from a Rational Screening Strategy” (Biosensors, 2022).

The subject of one assay is mAb 1A5. Kind of assay: icELISA with mAb 1A5 (hybridoma supernatant), coating antigen imidacloprid-OVA. The conditions noted are these: for CR: mAb 1A5, cross-reactivity relative to imidacloprid; for IC50: mAb 1A5, hybridoma supernatant, icELISA. It is filed as binding, mouse. The method, then: (§1) Procedures for the immunization, cell fusion and clone selection were similar to those described in our previous publications, and indirect non-competitive and competitive ELISAs were sequentially used for hybridoma screening. The generated mAb was purified by protein G from the ascitic fluid and then stored at −20 °C for further analysis. A mouse antibody isotyping kit was used to determine the isotypes of the mAbs.
(§2) Checkerboard titration was carried out by icELISAs with serial dilutions of the antibody and coating antigen (imidacloprid-OVA). […] The specificity and sensitivity were determined by icELISAs. Briefly, the mixture of standards with different concentrations and equal volume of antibody was added into the reaction wells of pre-coated plates. Standard curves were fitted into a four-parameter logarithmic equation: Y = A2 + [(A1 − A2)/1 + (X/X0)^p], and the half-maximal inhibitory concentration (IC50, defined as the assay sensitivity, was used to calculate cross-reactivity rate(CR).
(§3) Moreover, sensitivity (IC50) and CR to eight neonicotinoids were assessed by icELISAs.

Another assay concerns mAb 4B1. Kind of assay: icELISA with mAb 4B1 (hybridoma supernatant), coating antigen imidacloprid-OVA. The conditions noted are these: for CR: mAb 4B1, cross-reactivity relative to imidacloprid; for IC50: mAb 4B1, hybridoma supernatant, icELISA. It counts as binding, mouse. How it is done:
as §1, §2, §3

For another assay, the system named is 6F11-mAb. Nature of the assay: icELISA with purified 6F11-mAb. It is filed as binding, mouse. The conditions noted are these: for CR / IC50: 6F11-mAb; for CR: cross-reactivity relative to imidacloprid; for IC50: imidacloprid-OVA 10 µg/mL; for recognition by the antibody (6F11): in words. How it is done:
as §1, §2
(§4) Under the optimal working concentrations of 10 µg/mL for imidacloprid-OVA, icELISAs with high sensitivity to neonicotinoid pesticides and metabolites were established.

The test system of assay [1] is anti-imidacloprid monoclonal antibody. More on the design: method as in PMID 31862564. Conditions: anti-imidacloprid mAb, lateral-flow immunoassay; cited from earlier work.
Another assay deals with mAb 5C3. Nature of the assay: icELISA with mAb 5C3 (hybridoma supernatant), coating antigen imidacloprid-OVA. It is filed as binding, mouse. Conditions: for CR: mAb 5C3, cross-reactivity relative to imidacloprid; for IC50: mAb 5C3, hybridoma supernatant, icELISA. How it is done:
as §1, §2, §3

The test system of assay [2] is 6F11-rAb. Kind of assay: GNIS (gold lateral-flow immunosensing strip) assay based on 6F11-rAb. Conditions: for limit detection of T-line disappearance (visual detection limit): normal visual detection; for IC50: with a strip reader. It counts as binding, mouse. The source says: The preparation method for the conjugate of rAb-gold nanoparticles was based on a previous report. A colloid gold lateral-flow immunosensing strip consisted of three pads (glass fiber membrane, NC membrane and absorption membrane) using a one-sided adhesive polyvinyl chloride sheet as a support. The prepared imidaclothiz-OVA conjugate and goat anti-mouse IgG antibody were immobilized onto the NC membrane as the test line (T line) and control line (C line), respectively. For analysis, standard solutions at different concentrations were added to the 96-well microtiter plate, and then the strip was inserted into the well. After 15 min, the signal was observed using a portable reader (Helmen, Suzhou, China). Standard curves were gained by plotting the signal ratio of the T line to the C line (T/C) against the analyte concentration, and they were also fitted into the four-parameter logarithmic equation.
The 6F11-rAb was used to establish a rapid and reliable GNIS assay, and the limit detection of T-line disappearance was 5 ng/mL for imidacloprid, clothianidin and imidaclothiz and over 100 ng/mL for thiacloprid, acetamiprid and nitenpyram, judged by normal visual detection (Figure 5). […] Therefore, imidacloprid, clothianidin and imidaclothiz, with better sensitivity, were further determined by spiking experiment.

The subject of assay [3] is 6F11-rAb. Kind of assay: icELISA with full-length recombinant 6F11-rAb. It is filed as binding, mouse. Conditions: for CR: cross-reactivity relative to imidacloprid; for IC50: imidacloprid-OVA 10 µg/mL. How it is done:
Transient production in the HEK 293F suspension cells was performed as described. Briefly, cells were prepared with viable cell density around 1.5 × 10^6 cells/mL and viability above 95 % in 180 mL serum-free culture medium in 500 mL Nunc Erlenmeyer flasks and incubated at 37 °C in 5% CO2 atmosphere and shaken at 130 rpm in an orbital shaker for 2 h. A total of 90 μg of the plasmids (VH:VL = 2:3) mixed with transfection reagent were pre-warmed for 15 min and then transiently transfected into HEK 293F. After 5 days of incubation, the supernatant was collected and purified by protein G. The size of the purified full-length rAb was identified by SDS-PAGE.
as §2, §4

The next assay has as its system mAb 6F11. Nature of the assay: icELISA with mAb 6F11 (hybridoma supernatant), coating antigen imidacloprid-OVA. It counts as binding, mouse. Conditions: for CR: mAb 6F11, cross-reactivity relative to imidacloprid; for IC50: mAb 6F11, hybridoma supernatant, icELISA. How it is done: as §1, §2, §3

In brackets after ≈: the same amount, converted by molar mass. Bounds are passed on as bounds.

`CN/C(=N\[N+](=O)[O-])NCc1cnc(Cl)s1` [Clothianidin, clothianidin]: the CR in the assay with mAb 1A5 is listed as 63.3%; in the assay with mAb 4B1 it was 4.9%; in the assay with 6F11-mAb, 58.3%; in the assay on mAb 5C3, 20.2%; with 6F11-rAb [3], 41.7%; in the assay on mAb 6F11 it was 41.3%. Further, the IC50 is listed as 1.80 ng/mL with mAb 1A5; 59.41 ng/mL in the assay with mAb 4B1; 0.46 ng/mL in the assay on 6F11-mAb; 1.19 ng/mL in the assay on mAb 5C3; 0.5 ng/mL (≈ 2 nM) with 6F11-rAb [2]; 0.86 ng/mL in the assay on 6F11-rAb [3]. In the assay on mAb 6F11, the IC50 is 1.43 ng/mL. The cross-reactivity in assay [1] is 4.1%. Moreover, the “limit detection of T-line disappearance (visual detection limit)” value (“limit detection of T-line disappearance” for short) in the assay on 6F11-rAb [2] amounted to 5 ng/mL.
In the case of `C/C(=N\C#N)N(C)Cc1ccc(Cl)nc1` [Acetamiprid, acetamiprid], the CR in the assay with mAb 1A5 is 2.6%; in the assay on mAb 4B1 it was 3.1%; with 6F11-mAb, 4.5%; with mAb 5C3, 0.4%; in the assay on 6F11-rAb [3], 4.0%; in the assay with mAb 6F11, 9.5%. Moreover, the IC50 in the assay on mAb 1A5 turned out to be 43.34 ng/mL; in the assay on mAb 4B1, 92.77 ng/mL; in the assay on 6F11-mAb it was 5.92 ng/mL; in the assay with mAb 5C3, 58.52 ng/mL; with 6F11-rAb [3] it was 9.04 ng/mL; in the assay on mAb 6F11, 6.24 ng/mL. The cross-reactivity in assay [1] is reported as 1.1%. In addition, in the assay with 6F11-rAb [2], the “limit detection of T-line disappearance” value is reported as “over 100 ng/mL”.
In the case of `O=[N+]([O-])/N=C1\NCCN1Cc1cnc(Cl)s1` [Imidaclothiz, imidaclothiz], the CR stood at 126.7% in the assay with mAb 1A5; 7.1% with mAb 4B1; 115.1% with 6F11-mAb; 8.6% in the assay on mAb 5C3; 119.8% in the assay on 6F11-rAb [3]; 122.9% in the assay with mAb 6F11. Also, the IC50 in the assay on mAb 1A5 is listed as 0.90 ng/mL; in the assay with mAb 4B1 it was 41.09 ng/mL; in the assay on 6F11-mAb, 0.23 ng/mL; in the assay with mAb 5C3 it was 2.79 ng/mL; with 6F11-rAb [2], 0.7 ng/mL (≈ 2.67 nM); with 6F11-rAb [3], 0.30 ng/mL. Besides, the IC50 in the assay with mAb 6F11 was found to be 0.48 ng/mL. In addition, the “limit detection of T-line disappearance” value with 6F11-rAb [2] came to 5 ng/mL.
Consider `CCN(Cc1ccc(Cl)nc1)/C(=C/[N+](=O)[O-])NC` [Nitenpyram, nitenpyram], for which the CR is 3.7% with mAb 1A5; less than 0.1% with mAb 4B1; “no CR” in the assay with mAb 4B1 (listed as nitenpyram); 4.8% with 6F11-mAb; 0.8% in the assay on mAb 5C3; 5.1% in the assay on 6F11-rAb [3]. Further, in the assay with mAb 6F11, the CR came to 8.2%. Besides, the IC50 in the assay with mAb 1A5 is 31.19 ng/mL; in the assay with mAb 4B1, greater than 1000 ng/mL; in the assay on 6F11-mAb, 5.57 ng/mL; in the assay with mAb 5C3, 30.66 ng/mL; with 6F11-rAb [3], 7.07 ng/mL; in the assay with mAb 6F11, 7.16 ng/mL. In addition, in the assay on 6F11-rAb [2], the “limit detection of T-line disappearance” value was “over 100 ng/mL”.
On to `CN1COCN(Cc2cnc(Cl)s2)/C1=N\[N+](=O)[O-]` [Thiamethoxam, thiamethoxam], for which the CR in the assay on mAb 1A5 was less than 0.1%; in the assay with mAb 1A5 (listed as thiamethoxam), “without obvious CR”; in the assay on mAb 4B1, less than 0.1%; with mAb 4B1 (listed as thiamethoxam), “no CR”; with 6F11-mAb it was less than 0.1%; in the assay with mAb 5C3 it was less than 0.1%. Further, the CR entry in the assay with mAb 5C3 (listed as thiamethoxam) is recorded as “without obvious CR”; with 6F11-rAb [3], less than 0.1%; in the assay with mAb 6F11 it was less than 0.1%; in the assay with mAb 6F11 (listed as thiamethoxam), “without obvious CR”. Further, the IC50 with mAb 1A5, in the assay with mAb 4B1, with 6F11-mAb, with mAb 5C3, in the assay with 6F11-rAb [3] and in the assay on mAb 6F11 was greater than 1000 ng/mL in each case. Moreover, the “recognition by the antibody (6F11)” value in the assay with 6F11-mAb is on record as “cannot recognize”.
Take `CN/C(=N/CC1CCOC1)N[N+](=O)[O-]` (stereo not shown) [Dinotefuran, dinotefuran]: the CR is less than 0.1% with mAb 1A5; “without obvious CR” in the assay with mAb 1A5 (listed as dinotefuran); less than 0.1% in the assay on mAb 4B1; “no CR” in the assay with mAb 4B1 (listed as dinotefuran); less than 0.1% with 6F11-mAb; less than 0.1% in the assay on mAb 5C3. For the same compound, the CR result is “without obvious CR” with mAb 5C3 (listed as dinotefuran), less than 0.1% in the assay on 6F11-rAb [3], less than 0.1% with mAb 6F11 and “without obvious CR” in the assay on mAb 6F11 (listed as dinotefuran). Besides, the IC50 in the assay with mAb 1A5, with mAb 4B1, with 6F11-mAb, in the assay on mAb 5C3, in the assay on 6F11-rAb [3] and in the assay on mAb 6F11 was greater than 1000 ng/mL throughout.
As for `N#C/N=C1\SCCN1Cc1ccc(Cl)nc1` [Thiacloprid, thiacloprid], the CR with mAb 1A5 came to 2.7%; with mAb 4B1, 10.2%; with 6F11-mAb it was 20.6%; with mAb 5C3 it was 1.8%; in the assay on 6F11-rAb [3], 12.5%; in the assay on mAb 6F11, 21.2%. The IC50 in the assay with mAb 1A5 worked out at 42.91 ng/mL; in the assay with mAb 4B1, 28.37 ng/mL; in the assay on 6F11-mAb, 1.30 ng/mL; with mAb 5C3, 13.39 ng/mL; in the assay on 6F11-rAb [3], 2.89 ng/mL; with mAb 6F11 it was 2.78 ng/mL. The “limit detection of T-line disappearance” value in the assay with 6F11-rAb [2] is reported as “over 100 ng/mL”.
On to `O=[N+]([O-])/N=C1\NCOCN1Cc1cnc(Cl)s1` [N-desmethyl thiamethoxam], for which, in the assay on 6F11-mAb, the CR is 124.8%, the IC50 was 0.21 ng/mL and the “recognition by the antibody (6F11)” value is “very high affinity”. Further, in the assay on 6F11-rAb [3], the CR turned out to be 67.8% and the IC50 is recorded as 0.53 ng/mL.
With `O=[N+]([O-])/C=C1\NCCN1Cc1ccc(Cl)nc1` [6-Cl-PMNI], in the assay with 6F11-mAb, the CR came out at 132.9% and the IC50 was 0.20 ng/mL. Further, in the assay on 6F11-rAb [3], the CR worked out at 100.6% and the IC50 turned out to be 0.36 ng/mL.
